Reference: US6689758B1, “Gene therapy method” (SmithKline Beecham Corporation, priority 1998, dated 2004)

How the values were obtained:
[1] = test system: human cell co-culture system; assay: In vitro angiogenesis co-culture system (tubule formation, PECAM-1 staining); assay type: cell-based; details: 20 μM, negative control; 11 days co-culture
Description: Egr-1 under the control of the hCMV promoter (Houston et al, Arterioscler. Thromb. Vasc. Biol., 19; 281-289, 1999) was transfected into a human cell co-culture system designed to measure angiogenesis in vitro. The angiogenesis kit (TCS Biologicals) was used as described according to the manufacturer's instructions using VEGF protein (2 ng/ml) and suramin (20 μM) as positive and negative controls respectively for angiogenesis.
Optimisation of transfection in the co-culture system was performed using pGL3 control luciferase (Promega) with 1.0 μg and 0.5 μg CMV-β, gal as a normalising plasmid for transfection control. Two ratios of lipid: DNA (v/w) were used; 2:1 and 4:1 (FIG. 3a.). CMV Egr-1 DNA was transfected at 0.5, 1.0, 1.5 and 2.5 μg per well in triplicate in a 24 well microtitre plate using Mirus Transit reagent (Cambridge Biosciences) at a ratio of 2:1 v/w DNA. VEGF protein positive control and suramin negative control was added to triplicate wells. After 11 days co-culture angiogenesis was determined by staining of cells for the endothelial cell marker PECAM-1 and visualisation using BCIP/NBT substrate.
Representative images of tubule formation using all four doses of Egr-1 expression plasmid together with VEGF (positive control) and suramin (negative control) were captured and processed by image analysis using Quantimet 600 image analyser and associated software. […]

[2] = test system: rat excisional wounds; assay: Rat excisional wound healing model after particle mediated gene transfer; assay type: in vivo, Sprague Dawley rats
Description: Eighteen male Sprague Dawley rats weighing 250g were anaesthetised under isoflorane in a 2:1 mixture of oxygen/nitrous oxide. Two sites of transfection (8 cm from the skull, 1.5 cm either side of the spine) on the rat dorsum were prepared by firstly clipping the pelt then shaving with a razor. Two transfections were carried out per wound site, 8 mm apart, by accelerating plasmid/gold complexes of either Egr-1 or β-galactosidase into the skin at 350 psi. Total amount of DNA was not less than 1.7 μg per transfection (equalling 3.4 μg per wound). […]
Wound area was determined using image analysis and the healing expressed as a increase in percent of original wound area. Statistical significances of differences between treated and control groups were evaluated using a […] Mann-Whitney test.
Each wound per time point after dissection was bisected horizontally. […] Using this histological stain, key markers of wound healing was assessed including re-epithelialisation and collagen content and comparisons made between treated and control sections.
Immunocytochemistry and image analysis was performed in order to quantify the differences seen using routine histology. […] Area and intensity of staining was measured using image analysis and plotted as a graph. Statistical significant differences between treated and control groups were evaluated using a Man-Whitney nonparametric test.

[3] = test system: HeLa cells; assay: Transient transfection of reporter plasmid pSVSRE5 with pFA-MEK1 into HeLa cells; assay type: cell-based; details: co-transfected pFA-MEK1 vs pFA-dbd
From the text: We have concentrated on SRE5. The novel SRE 5 with its associated Ets transcription factor binding sites was synthesised as a double stranded oligonucleotide and inserted into the Nhe I site upstream of a SV40 minimal promoter vector (pSV40). SRE5 (SEQ ID NOS:7-8) has the sequence: […]
The resulting reporter plasmid pSVSRE5 was transiently transfected into HeLa cells together with plasmids pFA-dbd (construct encoding the Gal4 DNA binding domain (dbd) ) or pFA-MEK1 (construct encoding a fusion protein of the Gal4 DNA binding domain (dbd) and the kinase domain of the MAP kinase kinase MEK1). The Gal4-MEK1 fusion protein is constitutively active and phosphorylates Elk1 and SRF, bound to SRE5.

Molecule: Cc1ccc(C(=O)Nc2ccc(S(=O)(=O)O)c3cc(S(=O)(=O)O)cc(S(=O)(=O)O)c23)cc1NC(=O)c1cccc(NC(=O)Nc2cccc(C(=O)Nc3cc(C(=O)Nc4ccc(S(=O)(=O)O)c5cc(S(=O)(=O)O)cc(S(=O)(=O)O)c45)ccc3C)c2)c1 [suramin]
- tubule formation [1]: Decreased tubule formation

Molecule: β-galactosidase
- collagen I immunostaining (image analysis) ([2]; 2 days post wounding, β-galactosidase compared to Egr-1): significantly more collagen
- wounds with complete re-epithelialisation ([2]; 6 days post wounding): 0%

B1: SRE5: novel SRE 5 with associated Ets sites, double stranded oligonucleotide inserted upstream of SV40 minimal promoter (reporter plasmid pSVSRE5) (nucleic acid)
chain 1: AGGCTGCGACCCGGAAATGCCATATAAGAAGCAGGAAGGATCCCCCCGCCGG
chain 2: AGCCGGCGGGGGGATCCTTCCTGCTTCTTATATGGCATTTCCGGGTCGCAGC
modifications: double-stranded insert cloned upstream of SV40 minimal promoter in reporter plasmid, further chemistry not given here
- activation by the presence of MEK1 (reporter) [3]: 3 fold
